Among the data in DBAASP are MIC values, retold here.

Each structure is given as a SMILES string. ≈ marks a conversion by molar mass, not a printed value. A value given as a limit tells only on which side of the number the result lay.

Test systems include Escherichia coli BL21AI; Candida albicans C627; Escherichia coli; Salmonella sp.; Yersinia enterocolitica; Candida albicans MDM8; Escherichia coli SBS 363; Micrococcus luteus A270.
Common to all, as to test: ≥ marks a high value that may be exact or a test limit, other limits are often not marked, values filed in µg/mL are converted to µM
The subject of assay [1] is Bacillus anthracis Sterne 34F2.
The test system of assay [2] is Bacillus subtilis ATCC 9372.
The test system of assay [3] is Burkholderia thailandensis.
Assay [4] deals with Micrococcus luteus ATCC 10240.
In assay [5] the test system is Enterococcus faecium mic80.
Assay [6] concerns Escherichia coli ESBL 63103.
Assay [7] deals with Pseudomonas aeruginosa 213.
Assay [8] has as its system Pseudomonas aeruginosa H103.
The subject of assay [9] is Pseudomonas aeruginosa LES400.
The subject of assay [10] is Staphylococcus aureus ATCC 25923.
Assay [11] concerns Staphylococcus aureus C623.
Assay [12] has as its system Mycobacterium tuberculosis H37Rv.
The subject of assay [13] is Escherichia coli ATCC 25922.
For assay [14], the system named is Salmonella enterica subsp. enterica serovar Enteritidis.
The subject of assay [15] is Staphylococcus aureus ATCC 29213.
Assay [16] has as its system Staphylococcus aureus ATCC 43300.

For the molecule `CC[C@H](C)[C@H](NC(=O)CNC(=O)[C@H](CO)NC(=O)[C@H](CC(C)C)NC(=O)[C@@H](NC(=O)[C@H](CCCN=C(N)N)NC(=O)CNC(=O)[C@@H](NC(=O)[C@H](CC(C)C)NC(=O)[C@@H]1CCCN1C(=O)[C@H](CC(C)C)NC(=O)[C@@H](N)Cc1ccccc1)[C@@H](C)CC)C(C)C)C(=O)N[C@@H](CC(C)C)C(=O)O` [FLPLIGRVLSGIL], the MIC was no less than 100 µM in [1], no less than 100 µM in [2] and no less than 50 µM in assay [3].

As to `CC[C@H](C)[C@H](NC(=O)[C@H](Cc1ccc(O)cc1)NC(=O)[C@@H](NC(=O)[C@@H]1CCCN1C(=O)[C@H](CCCN=C(N)N)NC(=O)[C@H](CC(N)=O)NC(=O)[C@H](CC(N)=O)NC(=O)CN)C(C)C)C(=O)N1CCC[C@H]1C(=O)N[C@@H](CCC(N)=O)C(=O)N1CCC[C@H]1C(=O)N[C@@H](CCCN=C(N)N)C(=O)N1CCC[C@H]1C(=O)N1CCC[C@H]1C(=O)N[C@@H](Cc1cnc[nH]1)C(=O)N1CCC[C@H]1C(=O)N[C@@H](C)C(=O)N[C@@H](CC(C)C)C(N)=O` [GNNRPVYIPQPRPPHPAL], the MIC (with Escherichia coli BL21AI; in [4]) was no less than 61.8 µM throughout.

With `CC[C@H](C)[C@H](N)C(=O)N[C@@H](CCCCN)C(=O)N[C@@H](CCCCN)C(=O)N[C@@H](CCCN=C(N)N)C(=O)N[C@@H](Cc1c[nH]c2ccccc12)C(=O)N[C@@H](Cc1c[nH]c2ccccc12)C(=O)N[C@@H](Cc1c[nH]c2ccccc12)C(=O)N[C@@H](Cc1ccccc1)C(=O)N[C@@H](CCCN=C(N)N)C(=O)O` [IKKRWWWFR], the MIC was no less than 91.1 µM with Candida albicans C627; no less than 45.5 µM in assay [5]; no less than 45.5 µM in assay [6]; no less than 91.1 µM in assay [7]; no less than 91.1 µM in assay [8]; no less than 91.1 µM in assay [9]. Besides, the MIC in assay [10] and in assay [11] was 22.8 µM (≈ 32 µg/mL) throughout.

For the molecule `CC[C@H](C)[C@H](NC(=O)[C@H](CCCCN)NC(=O)[C@H](C)NC(=O)CNC(=O)[C@@H](NC(=O)[C@H](CCCCN)NC(=O)[C@@H](NC(=O)[C@H](CCCCN)NC(=O)[C@H](C)NC(=O)CNC(=O)[C@@H](NC(=O)[C@H](CCCCN)NC(=O)[C@@H](NC(=O)[C@H](CCCCN)NC(=O)[C@H](C)NC(=O)CNC(=O)[C@@H](NC(=O)[C@@H](N)CCCCN)[C@@H](C)CC)[C@@H](C)CC)[C@@H](C)CC)[C@@H](C)CC)[C@@H](C)CC)C(=O)O` [KIGAKIKIGAKIKIGAKI], the minimum inhibitory concentration (MIC) in [1] was no less than 100 µM; in assay [2], 31 µM (≈ 57.4 µg/mL); in assay [3], no less than 50 µM.

In the case of `CC[C@H](C)[C@H](NC(=O)[C@H](Cc1ccc(O)cc1)NC(=O)CNC(=O)[C@@H](NC(=O)[C@@H](NC(=O)CNC(=O)[C@@H](NC(=O)[C@H](C)NC(=O)[C@H](C)NC(=O)CNC(=O)CNC(=O)[C@@H](N)CC(C)C)[C@@H](C)O)C(C)C)[C@@H](C)CC)C(=O)N[C@@H](CO)C(=O)N[C@@H](CC(N)=O)C(=O)N[C@@H](CCC(N)=O)C(=O)N[C@H](C(=O)N[C@@H](CS)C(=O)N1CCC[C@H]1C(=O)N[C@H](C(=O)N[C@H](C(=O)N[C@@H](C)C(=O)N[C@@H](CS)C(=O)N[C@H](C(=O)N[C@@H](CCCN=C(N)N)C(=O)N[C@@H](C)C(=O)N[C@@H](CS)C(=O)O)[C@@H](C)O)[C@@H](C)O)[C@@H](C)O)[C@@H](C)O` [LGGAATGVIGYISNQTCPTTACTRAC], the MIC in assay [1] is no less than 100 µM; in assay [2], no less than 100 µM; in [3], no less than 50 µM.

As for `CC[C@H](C)[C@H](NC(=O)[C@H](CC(N)=O)NC(=O)[C@H](C)NC(=O)[C@H](CCCN=C(N)N)NC(=O)[C@H](Cc1ccccc1)NC(=O)[C@H](CCC(=O)O)NC(=O)[C@H](Cc1ccccc1)NC(=O)[C@H](Cc1ccc(O)cc1)NC(=O)[C@H](Cc1ccccc1)NC(=O)CNC(=O)[C@@H]1CCCN1C(=O)[C@@H]1CCCN1C(=O)[C@@H](N)CCCN=C(N)N)C(=O)N[C@H](C(=O)N1CCC[C@H]1C(=O)N[C@@H](Cc1ccc(O)cc1)C(=O)N[C@@H](CC(C)C)C(=O)NCC(=O)N[C@@H](CCCN=C(N)N)C(=O)N[C@@H](CCCN=C(N)N)C(=O)O)[C@@H](C)CC` [RPPGFYFEFRANIIPYLGRR], the MIC in assay [12] was no less than 60.7 µM.

In the case of `CC[C@H](C)[C@H](NC(=O)[C@H](CCC(N)=O)NC(=O)[C@@H](N)CCCN=C(N)N)C(=O)N[C@@H](CCCN=C(N)N)C(=O)N[C@@H](CCCN=C(N)N)C(=O)N[C@H](C(=O)N[C@H](C(=O)N[C@@H](CCC(N)=O)C(=O)N[C@@H](CCCN=C(N)N)C(N)=O)[C@@H](C)CC)[C@@H](C)CC` [RQIRRIIQR], the MIC in [13] is greater than 40.4 µM; against Escherichia coli, greater than 40.4 µM; in [14], no less than 40.4 µM; against Salmonella sp., no less than 40.4 µM; in [15] it was greater than 40.4 µM; in [16], greater than 40.4 µM. The molecule also gave an MIC in the assay on Yersinia enterocolitica of no less than 40.4 µM.

For `CC[C@H](C)[C@H](NC(=O)[C@H](CCC(N)=O)NC(=O)[C@@H](N)CCCN=C(N)N)C(=O)N[C@@H](CCCN=C(N)N)C(=O)N[C@@H](CCCN=C(N)N)C(=O)N[C@@H](Cc1c[nH]c2ccccc12)C(=O)N[C@@H](Cc1c[nH]c2ccccc12)C(=O)N[C@@H](CCSC)C(=O)N[C@@H](CCCN=C(N)N)C(N)=O` [RQIRRWWMR], the MIC in assay [13] is greater than 36 µM; against Escherichia coli, greater than 36 µM; in assay [14], no less than 36 µM; in the assay with Salmonella sp., no less than 36 µM; in assay [15] it was greater than 36 µM; in assay [16], greater than 36 µM. For the same molecule, in the assay with Yersinia enterocolitica, the MIC was no less than 36 µM.

Consider `CC(C)C[C@H](NC(=O)[C@H](Cc1c[nH]c2ccccc12)NC(=O)[C@H](CCCN=C(N)N)NC(=O)[C@H](Cc1c[nH]c2ccccc12)NC(=O)[C@H](Cc1c[nH]c2ccccc12)NC(=O)[C@H](CCCCN)NC(=O)[C@H](CCCCN)NC(=O)[C@H](Cc1c[nH]c2ccccc12)NC(=O)[C@@H](N)CCCN=C(N)N)C(=O)O` [RWKKWWRWL], for which the MIC was 2.77 µM (≈ 4 µg/mL) in the assay with Candida albicans C627; 11.1 µM (≈ 16 µg/mL) in assay [5]; 11.1 µM (≈ 16 µg/mL) in assay [6]; 11.1 µM (≈ 16 µg/mL) in assay [7]; 1.38 µM (≈ 2 µg/mL) in assay [8]; 11.1 µM (≈ 16 µg/mL) in assay [9]. The MIC in [10] and in assay [11] was 2.77 µM (≈ 4 µg/mL) in each case.

With `CC[C@H](C)[C@H](NC(=O)[C@H](CC(C)C)NC(=O)[C@H](CO)NC(=O)[C@H](CC(C)C)NC(=O)[C@H](Cc1ccccc1)NC(=O)[C@@H](N)CO)C(=O)N[C@@H](CCCN=C(N)N)C(=O)N[C@@H](CCCCN)C(=O)N[C@@H](CC(C)C)C(=O)N[C@H](C(=O)N[C@H](C(N)=O)[C@@H](C)O)[C@@H](C)CC` [SFLSLIRKLIT], the MIC came out at 0.78 µM (≈ 1.01 µg/mL) in the assay on Candida albicans MDM8, 1.56 µM (≈ 2.01 µg/mL) with Escherichia coli SBS 363 and 0.78 µM (≈ 1.01 µg/mL) in the assay on Micrococcus luteus A270.

As a reminder, the MIC is the smallest concentration in the dilution series that meets the test's criterion for growth inhibition. High values mean weaker potency, low ones greater potency.
